Assay results: ChEMBL document CHEMBL3745616, “Identification of a potent inhibitor targeting human lactate dehydrogenase A and its metabolic modulation for cancer cell line” (Bioorg Med Chem Lett, 2016)
Active and inactive are the calls of the source. The calls are words filed in the database; no cut-off is given here.

Columns and labels:
MCF7 [1] = assay: Cytotoxicity against human MCF7 cells after 72 hrs by MTT assay; format: functional, cell-based; conditions: MCF7, 72 h
[2] = target: L-lactate dehydrogenase A chain (Homo sapiens, UniProt P00338); assay: Inhibition of human LDHA using pyruvate as substrate assessed as disappearance of NADH preincubated for 10 mins followed by substrate addition every 2.5 secs for 10 mins by fluorescence analysis
MCF7 [3] = assay: Increase in oxygen consumption rate in human MCF7 cells at 2 to 10 uM after 12 hrs by extracellular flux analysis; format: functional, cell-based
MCF7 [4] = assay: Reduction in lactate production in human MCF7 cells at 5 to 10 uM after 12 hrs; format: functional, cell-based
MCF7 [5] = assay: Decrease in proton production rate in human MCF7 cells at 2 to 10 uM after 12 hrs by extracellular flux analysis; format: functional, cell-based
MCF7 [6] = assay: Decrease in extracellular acidfication rate in human MCF7 cells at 2 to 10 uM after 12 hrs by extracellular flux analysis; format: functional, cell-based
MCF7 [7] = assay: Reduction in lactate production in human MCF7 cells at 5 uM after 12 hrs; format: functional, cell-based
MCF7 [8] = assay: Reduction in lactate production in human MCF7 cells at 10 uM after 12 hrs; format: functional, cell-based

| IC50 [2] [µM] | SMILES | IC50 (MCF7 [1]) [µM] | Activity (MCF7 [3]) | Activity (MCF7 [4]) | inhibition (MCF7 [5]) | inhibition (MCF7 [6]) | Activity (MCF7 [7]) | Activity (MCF7 [8]) |
| --- | --- | --- | --- | --- | --- | --- | --- | --- |
| 2.3 | Cn1c(=O)c2c(nc(NCc3ccccc3)n2C[C@@H](O)COc2ccc(Cl)cc2)n(C)c1=O | 3.5 | – | – | – | – | – | – |
| 3.5 | CCCC(=O)N(c1ccc2oc(C)c(C(=O)OCC)c2c1)S(=O)(=O)c1ccc(OC)cc1 | > 30 | – | – | – | – | – | – |
| 7.8 | Cc1nc(C)c(C(=O)OC[C@H]2CCCO2)c(-c2ccccc2C(F)(F)F)c1C(=O)O | 10.8 | – | – | – | – | – | – |
| 0.25 | Cc1ccccc1OC[C@H](O)Cn1c(NCc2ccccc2)nc2c1c(=O)n(C)c(=O)n2C | 1.54 | Active | Active | Active | Active | Active | – |
| 4.8 | COc1ncc(-c2ccc3c(Nc4cccc(C(=O)O)c4)c(S(N)(=O)=O)cnc3c2)c(OC)n1 | > 30 | – | – | – | – | – | Active |
